Earlier results in patent US20050287096A1, “Method for improving the appearance of skin” (priority 2004, published 2005).

Tested on: knee abrasions
Conditions: ointment containing 5% sucralfate, topical

Substance: sucralfate
- stopping of fusion from the abrasions (knee abrasions caused by falls during a basketball game): fusion to be stopped after twenty four hours
- healing of the abrasions (period after fusion stopped): good healing occurring over a three day period
